Results: the NIST ThermoML archive (doi:10.1021/je800999s)
± gives the expanded uncertainty stated by the source.

Test: molar heat capacity at constant pressure; xn = mol fraction of the nth substance listed
Settings: 101 kPa, Liquid, Large sample (1 g) DSC

CN1CCCC1=O [N-methylpyrrolidone] + O
molar heat capacity at constant pressure [J/K/mol]
Settings	x1 = 0.0999	x1 = 0.1998	x1 = 0.2984	x1 = 0.3979	x1 = 0.4961	x1 = 0.5981	x1 = 0.6917	x1 = 0.799	x1 = 0.8946	x1 = 1
303.15 K	90 ± 4	102 ± 4	113 ± 5	122 ± 5	129 ± 6	137 ± 6	144 ± 6	152 ± 6	158 ± 7	166 ± 7
308.15 K	90 ± 4	103 ± 4	114 ± 5	123 ± 5	131 ± 6	138 ± 6	146 ± 6	153 ± 7	160 ± 7	167 ± 7
313.15 K	91 ± 4	104 ± 4	115 ± 5	124 ± 5	132 ± 6	140 ± 6	147 ± 6	154 ± 7	161 ± 7	168 ± 7
318.15 K	91 ± 4	105 ± 4	116 ± 5	125 ± 5	133 ± 6	141 ± 6	148 ± 6	155 ± 7	162 ± 7	169 ± 7
323.15 K	92 ± 4	105 ± 4	118 ± 5	127 ± 5	135 ± 6	142 ± 6	150 ± 6	157 ± 7	164 ± 7	170 ± 7
328.15 K	92 ± 4	106 ± 5	119 ± 5	128 ± 5	136 ± 6	144 ± 6	151 ± 6	158 ± 7	165 ± 7	172 ± 7
333.15 K	93 ± 4	107 ± 5	120 ± 5	129 ± 6	138 ± 6	145 ± 6	153 ± 7	160 ± 7	166 ± 7	174 ± 7
338.15 K	93 ± 4	108 ± 5	121 ± 5	131 ± 6	139 ± 6	147 ± 6	154 ± 7	161 ± 7	168 ± 7	175 ± 7
343.15 K	94 ± 4	109 ± 5	122 ± 5	132 ± 6	141 ± 6	149 ± 6	156 ± 7	163 ± 7	169 ± 7	176 ± 7
348.15 K	95 ± 4	110 ± 5	123 ± 5	133 ± 6	142 ± 6	150 ± 6	157 ± 7	164 ± 7	170 ± 7	177 ± 8
353.15 K	95 ± 4	110 ± 5	124 ± 5	134 ± 6	142 ± 6	151 ± 6	158 ± 7	165 ± 7	170 ± 7	178 ± 8

O=S1(=O)CCCC1 [sulfolane] + O
molar heat capacity at constant pressure [J/K/mol]
Settings	x1 = 0.0999	x1 = 0.1998	x1 = 0.2987	x1 = 0.3995	x1 = 0.4945	x1 = 0.5987	x1 = 0.6984	x1 = 0.7904	x1 = 0.8865	x1 = 1
303.15 K	87 ± 4	100 ± 4	112 ± 5	124 ± 5	135 ± 6	145 ± 6	155 ± 7	164 ± 7	173 ± 7	182 ± 8
308.15 K	88 ± 4	100 ± 4	113 ± 5	125 ± 5	136 ± 6	147 ± 6	156 ± 7	166 ± 7	175 ± 7	184 ± 8
313.15 K	88 ± 4	101 ± 4	114 ± 5	126 ± 5	137 ± 6	148 ± 6	157 ± 7	167 ± 7	176 ± 7	185 ± 8
318.15 K	88 ± 4	102 ± 4	114 ± 5	127 ± 5	138 ± 6	149 ± 6	159 ± 7	168 ± 7	177 ± 8	186 ± 8
323.15 K	89 ± 4	102 ± 4	115 ± 5	128 ± 5	139 ± 6	150 ± 6	160 ± 7	170 ± 7	179 ± 8	188 ± 8
328.15 K	89 ± 4	103 ± 4	116 ± 5	129 ± 6	141 ± 6	152 ± 6	162 ± 7	172 ± 7	181 ± 8	189 ± 8
333.15 K	89 ± 4	104 ± 4	117 ± 5	130 ± 6	142 ± 6	153 ± 7	164 ± 7	173 ± 7	183 ± 8	191 ± 8
338.15 K	90 ± 4	104 ± 4	118 ± 5	131 ± 6	143 ± 6	155 ± 7	165 ± 7	175 ± 7	184 ± 8	193 ± 8
343.15 K	90 ± 4	105 ± 4	119 ± 5	132 ± 6	144 ± 6	156 ± 7	167 ± 7	177 ± 8	186 ± 8	194 ± 8
348.15 K	91 ± 4	106 ± 5	120 ± 5	133 ± 6	146 ± 6	158 ± 7	169 ± 7	179 ± 8	188 ± 8	197 ± 8
353.15 K	91 ± 4	107 ± 5	121 ± 5	135 ± 6	148 ± 6	160 ± 7	171 ± 7	181 ± 8	191 ± 8	199 ± 8
